ChEMBL document CHEMBL3871265, “The therapeutic journey of pyridazinone” (Eur J Med Chem, 2016)

Legend:
[1] = biological target: T1, Adrenergic receptor alpha-1 (Rattus norvegicus, UniProt P15823+P23944+P43140); assay: Displacement of [3H]prazosin from alpha1-adrenergic receptor in rat cerebral cortex membranes; format: cell membranes, Membrane
T1 sequence (P15823 whole entry): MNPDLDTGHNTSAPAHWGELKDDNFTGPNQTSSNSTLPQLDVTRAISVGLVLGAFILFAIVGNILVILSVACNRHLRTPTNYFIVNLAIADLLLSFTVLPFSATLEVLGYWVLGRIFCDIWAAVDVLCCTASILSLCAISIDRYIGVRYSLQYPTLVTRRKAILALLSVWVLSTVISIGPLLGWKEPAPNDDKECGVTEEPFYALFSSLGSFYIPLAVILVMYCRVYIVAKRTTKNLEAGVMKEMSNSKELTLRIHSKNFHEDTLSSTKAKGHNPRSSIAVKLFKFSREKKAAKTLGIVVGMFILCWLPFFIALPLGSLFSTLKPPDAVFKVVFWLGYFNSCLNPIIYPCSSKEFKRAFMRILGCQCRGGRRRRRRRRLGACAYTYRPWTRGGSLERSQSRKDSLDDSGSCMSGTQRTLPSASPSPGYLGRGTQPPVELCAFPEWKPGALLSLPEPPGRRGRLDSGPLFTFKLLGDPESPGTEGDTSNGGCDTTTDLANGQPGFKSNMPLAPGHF
T1 sequence (P23944 whole entry): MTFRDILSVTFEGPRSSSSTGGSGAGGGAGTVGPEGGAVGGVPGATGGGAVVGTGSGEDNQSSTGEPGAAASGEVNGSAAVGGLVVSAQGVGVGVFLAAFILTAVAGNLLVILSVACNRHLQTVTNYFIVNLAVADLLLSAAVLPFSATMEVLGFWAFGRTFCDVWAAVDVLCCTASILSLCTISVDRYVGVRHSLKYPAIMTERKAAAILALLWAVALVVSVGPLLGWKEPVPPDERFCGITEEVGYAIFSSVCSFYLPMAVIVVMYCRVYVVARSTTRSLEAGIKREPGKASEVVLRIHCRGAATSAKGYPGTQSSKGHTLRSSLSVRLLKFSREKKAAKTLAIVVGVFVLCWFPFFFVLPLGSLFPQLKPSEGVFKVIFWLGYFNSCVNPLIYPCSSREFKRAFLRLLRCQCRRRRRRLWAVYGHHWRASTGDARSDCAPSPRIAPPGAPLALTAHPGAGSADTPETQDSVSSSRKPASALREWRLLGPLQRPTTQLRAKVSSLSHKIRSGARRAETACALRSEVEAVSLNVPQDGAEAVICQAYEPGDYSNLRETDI
T1 sequence (P43140 whole entry): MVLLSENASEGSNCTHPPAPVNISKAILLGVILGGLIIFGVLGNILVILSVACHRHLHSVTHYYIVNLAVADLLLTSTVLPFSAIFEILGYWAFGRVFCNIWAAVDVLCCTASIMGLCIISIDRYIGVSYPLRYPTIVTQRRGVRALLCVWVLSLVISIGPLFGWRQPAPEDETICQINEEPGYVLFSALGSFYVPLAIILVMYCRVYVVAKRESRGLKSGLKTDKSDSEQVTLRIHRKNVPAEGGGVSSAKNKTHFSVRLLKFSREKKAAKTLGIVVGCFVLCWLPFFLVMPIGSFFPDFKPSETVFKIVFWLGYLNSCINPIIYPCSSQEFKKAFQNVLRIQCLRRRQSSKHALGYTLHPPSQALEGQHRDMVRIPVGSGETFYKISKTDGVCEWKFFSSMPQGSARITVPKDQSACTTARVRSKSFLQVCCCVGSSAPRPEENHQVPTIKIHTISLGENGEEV

[2] = biological target: Adrenergic receptor alpha-1 (Rattus norvegicus) (UniProt P15823+P23944+P43140); assay: Potency index, ratio of compound affinity to prazosin affinity for alpha1-adrenergic receptor in rat cerebral cortex membranes; format: cell membranes; details: Membrane
[3] = Antiplatelet activity in human washed platelets assessed as reduction in thrombin-induced platelet aggregation preincubated for 5 mins followed by thrombin induction measured after 5 mins by dual channel aggregometric analysis; format: functional, cell-based
Rattus norvegicus [4] = assay: Antiinflammatory activity in rat paw edema model; format: functional
[5] = Antiinflammatory activity in human HL60 cells assessed as inhibition of LPS-induced IL-1beta production; format: functional, cell-based; details: HL-60
[6] = Cytotoxicity against human SMMC7721 cells assessed as cell growth inhibition after 72 hrs in presence of 5% CO2 by MTS assay; format: functional; details: SMMC-7721, 72 h
[7] = Cytotoxicity against human Bel7402 cells assessed as cell growth inhibition after 72 hrs in presence of 5% CO2 by MTS assay; format: functional; details: Bel-7402, 72 h
[8] = Cytotoxicity against human QGY7703 cells assessed as cell growth inhibition after 72 hrs in presence of 5% CO2 by MTS assay; format: functional; details: QGY-7703, 72 h
[9] = Cytotoxicity against human IMR32 cells assessed as reduction in cell viability after 72 hrs by MTT assay; format: functional, cell-based; details: IMR-32, 72 h
[10] = Agonist activity at PGI2 in human platelet-rich plasma assessed as inhibition of ADP-induced platelet aggregation
Rattus norvegicus [11] = species: Rattus norvegicus; assay: Antiinflammatory activity in rat pyresis model; format: functional
[12] = Antiplatelet activity in human platelets assessed as reduction in thrombin-induced platelet aggregation by turbidimetric method; format: functional, cell-based

O=C(c1ccco1)N1CCN(c2cnn(CCCCCCCN3CCN(c4ccccc4Oc4ccccc4)CC3)c(=O)c2Cl)CC1
Ki [1]: 0.052 nM
Ratio [2]: 5

CCOC(=O)C(=Cc1cc(=O)[nH]nc1-c1ccccc1)C(=O)OCC
IC50 [3]: 20000 nM

CC(C)Oc1c(-c2ccc(S(C)(=O)=O)cc2)cnn(Cc2ccccc2)c1=O
ED50 (Rattus norvegicus [4]): 0.3 mg/kg

COc1ccc(-c2cc(=O)n(CC/C=C/c3ccccc3)nc2-c2ccc(OC)cc2)cc1
IC50 [5]: 100 nM

O=c1ccc(-c2ccc(N3CCOCC3)c(C(F)(F)F)c2)n[nH]1
GI50 [6]: 28.7 nM
GI50 [7]: 469 nM
GI50 [8]: 30.2 nM

COC(=O)C(=Cc1cc(=O)[nH]nc1-c1ccccc1)C(=O)OC
IC50 [3]: 45000 nM

COC(=O)/C(=C/c1cc(O)nnc1-c1ccccc1)C(C)=O
IC50 [3]: 25000 nM

O=C(/C=C/c1cc(=O)[nH]nc1-c1ccccc1)c1ccccc1
IC50 [3]: 25000 nM

Cc1n[nH]c(=O)c2c1c1cc(F)ccc1n2Cc1cn(C2CCCCC2)nn1
IC50 [9]: 40 nM

O=C(O)COc1cccc2c1CC[C@H](Cn1nc(C(c3ccccc3)c3ccccc3)ccc1=O)C2
IC50 [10]: 81 nM

C[C@H]1C[C@@H]1Cn1ncc(-c2ccc(S(C)(=O)=O)cc2)c(-c2ccc(F)cc2)c1=O
ED50 (Rattus norvegicus [11]): 1.1 mg/kg

O=C(/C=C/c1cc(=O)[nH]nc1-c1ccccc1)c1ccc(Cl)cc1Cl
IC50 [12]: 3440 nM

CC(C)(C)c1ccc(CSc2c(-c3ccccc3)nn(C(C)(C)C)c(=O)c2F)cc1
IC50 [3]: 15000 nM
